Tested on: uPA mRNA
Experiment: Northern blot of uPA mRNA in MCF-7 cells treated with demethylating agent (Example 6)
Type: cell-based, human
Conditions: 25 uM, ten days, vs vehicle alone
Procedure: Human breast cancer cells MCF-7 were maintained in culture and at 65% confluent cells were treated with vehicle alone (MCF-7) or 25 uM of the demethylating agent 5 azc (MCF-7+5azc) for ten days. MDA-231 cells were used as positive control (MDA-231) for uPA expression. At the end of this period 20 μg of cellular RNA from each group were electophoresed on a 1.1% agarose/formaldehyde gel and […] a ^32p labeled 18 S RNA probe. All blots (FIG. 1A) were quantified by densitometric scanning (FIG. 1B). Significant difference from control cells is represented by an asterisk (p<0.05).

Nc1ncn([C@@H]2O[C@H](CO)[C@@H](O)[C@H]2O)c(=O)n1 [5-azc]
uPA mRNA (Northern blot, densitometric scanning): marked induction

Reference: patent publication US7316900B2, “Methylated nucleotide regulation of gene expression” (Quebepharma Recherche, Inc., priority 2000, dated 2008)
